Measurements as given in PubChem BioAssay (NCI).
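In this assay, cells in 96-well plates receive the compound at five concentrations for 48 hours. Endpoints are linearly interpolated between the surrounding concentrations. GI50 marks 50% less growth. TGI: concentration producing complete growth inhibition.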

Legend:
Experiment in all cases: growth of human tumour cells (NCI), 48 h
NCI/ADR-RES ovarian = tested on: NCI/ADR-RES ovarian
NCI-H460 lung = tested on: NCI-H460 lung
MOLT-4 leukemia = tested on: MOLT-4 leukemia
A549 NSCLC = tested on: A549 NSCLC
SK-MEL-5 melanoma = tested on: SK-MEL-5 melanoma
T-47D breast = tested on: T-47D breast
SF-295 CNS = tested on: SF-295 CNS
CAKI-1 renal = tested on: CAKI-1 renal
OVCAR-8 ovarian = tested on: OVCAR-8 ovarian
UACC-257 melanoma = tested on: UACC-257 melanoma
SF-268 CNS = tested on: SF-268 CNS
PC-3 prostate = tested on: PC-3 prostate
NCI-H23 lung = tested on: NCI-H23 lung
786-0 renal = tested on: 786-0 renal
UO-31 renal = tested on: UO-31 renal
OVCAR-5 ovarian = tested on: OVCAR-5 ovarian
MDA-MB-435 = tested on: MDA-MB-435
BT-549 breast = tested on: BT-549 breast
SK-MEL-28 melanoma = tested on: SK-MEL-28 melanoma
HT29 colon = tested on: HT29 colon
OVCAR-4 ovarian = tested on: OVCAR-4 ovarian
HCT-15 colon = tested on: HCT-15 colon
OVCAR-3 ovarian = tested on: OVCAR-3 ovarian
K-562 leukemia = tested on: K-562 leukemia
U251 CNS = tested on: U251 CNS
HOP-92 NSCLC = tested on: HOP-92 NSCLC

COCCNCC(O)Cn1c2ccc(Cl)cc2c2cc(Cl)ccc21 (configuration not stated)
GI50 (NCI/ADR-RES ovarian): 2390 nM
TGI (NCI/ADR-RES ovarian): 5590 nM
GI50 (NCI-H460 lung): 1860 nM
TGI (NCI-H460 lung): 3600 nM
GI50 (MOLT-4 leukemia): 1970 nM
TGI (MOLT-4 leukemia): 4050 nM
GI50 (A549 NSCLC): 1790 nM
TGI (A549 NSCLC): 3740 nM
GI50 (SK-MEL-5 melanoma): 1710 nM
TGI (SK-MEL-5 melanoma): 3180 nM
GI50 (T-47D breast): 1970 nM
TGI (T-47D breast): 4030 nM
GI50 (SF-295 CNS): 1930 nM
TGI (SF-295 CNS): 4280 nM
GI50 (CAKI-1 renal): 1700 nM
TGI (CAKI-1 renal): 3360 nM
GI50 (OVCAR-8 ovarian): 2060 nM
TGI (OVCAR-8 ovarian): 5080 nM
GI50 (UACC-257 melanoma): 1680 nM
TGI (UACC-257 melanoma): 3350 nM
GI50 (SF-268 CNS): 1790 nM
TGI (SF-268 CNS): 3480 nM
GI50 (PC-3 prostate): 1750 nM
TGI (PC-3 prostate): 3810 nM
GI50 (NCI-H23 lung): 2100 nM
TGI (NCI-H23 lung): 4700 nM
GI50 (786-0 renal): 1800 nM
TGI (786-0 renal): 3420 nM
GI50 (UO-31 renal): 1750 nM
TGI (UO-31 renal): 4170 nM
GI50 (OVCAR-5 ovarian): 2150 nM
TGI (OVCAR-5 ovarian): 5230 nM
GI50 (MDA-MB-435): 1700 nM
TGI (MDA-MB-435): 3190 nM
GI50 (BT-549 breast): 2060 nM
TGI (BT-549 breast): 4360 nM
GI50 (SK-MEL-28 melanoma): 1730 nM
TGI (SK-MEL-28 melanoma): 3250 nM
GI50 (HT29 colon): 2230 nM
TGI (HT29 colon): 4240 nM
GI50 (OVCAR-4 ovarian): 2010 nM
TGI (OVCAR-4 ovarian): 5200 nM
GI50 (HCT-15 colon): 2060 nM
TGI (HCT-15 colon): 5000 nM
GI50 (OVCAR-3 ovarian): 1950 nM
TGI (OVCAR-3 ovarian): 3660 nM
GI50 (K-562 leukemia): 2190 nM
TGI (K-562 leukemia): 4640 nM
GI50 (U251 CNS): 1940 nM
TGI (U251 CNS): 3930 nM
GI50 (HOP-92 NSCLC): 1570 nM
TGI (HOP-92 NSCLC): 5170 nM
